Assay results: PubChem BioAssay AID248 (DTP/NCI, 2004)
Values joined by “and” are separate entries in the source; they are usually repeats but may differ in a detail not shown here. Identical values can stand only once. Inconclusive results and toxic doses are left out.

Tested on: L1210 leukemia ip in BDF1 mice, survival T/C
Experiment: NCI In Vivo Anticancer Drug Screen. Data for tumor model L1210 Leukemia (intraperitoneal) in B6D2F1 (BDF1) mice
Conditions: higher = longer survival
Procedure, shortened: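 Read-out is survival time, reported as the treated-group measurement over the vehicle-control measurement.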

N[C@H](C(=O)O)[C@H]1ON=C(Cl)[C@@H]1O
T/C (endpoint: mean survival time, dose: 0.78 mg/kg/injection, schedule: Q01DX009 (ip), vehicle: saline): 108 % of control
T/C (endpoint: mean survival time, dose: 5.5 mg/kg/injection, schedule: Q01DX009 (ip), vehicle: Klucel (hydroxypropylcellulose) (HPC)): 108 % of control
T/C (endpoint: mean survival time, dose: 25.0 mg/kg/injection, schedule: Q01DX009 (ip), vehicle: Klucel (hydroxypropylcellulose) (HPC)): 118 % of control
T/C (endpoint: mean survival time, dose: 50.0 mg/kg/injection, schedule: Q01DX009 (ip), vehicle: Klucel (hydroxypropylcellulose) (HPC)): 150 % of control
T/C (endpoint: mean survival time, dose: 66.0 mg/kg/injection, schedule: Q01DX009 (ip), vehicle: Klucel (hydroxypropylcellulose) (HPC)): 151 % of control
T/C (endpoint: mean survival time, dose: 100.0 mg/kg/injection, schedule: Q01DX009 (ip), vehicle: Klucel (hydroxypropylcellulose) (HPC)): 154 % of control and 158 % of control
T/C (endpoint: mean survival time, dose: 150.0 mg/kg/injection, schedule: Q01DX009 (ip), vehicle: Klucel (hydroxypropylcellulose) (HPC)): 104 % of control
T/C (endpoint: median survival time, dose: 4.0 mg/kg/injection, schedule: Q03HX008 (ip), vehicle: saline): 123 % of control
T/C (endpoint: median survival time, dose: 4.0 mg/kg/injection, schedule: Q03HX024 (ip), vehicle: saline): 154 % of control
T/C (endpoint: median survival time, dose: 6.25 mg/kg/injection, schedule: Q03HX016 (ip), vehicle: saline): 154 % of control
T/C (endpoint: median survival time, dose: 6.25 mg/kg/injection, schedule: Q03HX024 (ip), vehicle: saline): 189 % of control
T/C (endpoint: median survival time, dose: 8.0 mg/kg/injection, schedule: Q01DX009 (sc), vehicle: saline): 118 % of control
T/C (endpoint: median survival time, dose: 8.0 mg/kg/injection, schedule: Q03HX016 (ip), vehicle: saline): 153 % of control
T/C (endpoint: median survival time, dose: 12.5 mg/kg/injection, schedule: Q03HX016 (ip), vehicle: saline): 152 % of control
T/C (endpoint: median survival time, dose: 12.5 mg/kg/injection, schedule: Q03HX024 (ip), vehicle: saline): 170 % of control
T/C (endpoint: median survival time, dose: 16.0 mg/kg/injection, schedule: Q03HX016 (ip), vehicle: saline): 150 % of control
T/C (endpoint: median survival time, dose: 25.0 mg/kg/injection, schedule: Q01DX001 (ip), vehicle: saline): 113 % of control
T/C (endpoint: median survival time, dose: 25.0 mg/kg/injection, schedule: Q01DX009 (ip), vehicle: saline): 171 % of control
T/C (endpoint: median survival time, dose: 25.0 mg/kg/injection, schedule: Q03HX016 (ip), vehicle: saline): 160 % of control
T/C (endpoint: median survival time, dose: 25.0 mg/kg/injection, schedule: Q08DX002 (ip), vehicle: saline): 104 % of control
T/C (endpoint: median survival time, dose: 32.0 mg/kg/injection, schedule: Q01DX001 (ip), vehicle: saline): 105 % of control
T/C (endpoint: median survival time, dose: 32.0 mg/kg/injection, schedule: Q01DX001 (sc), vehicle: saline): 105 % of control
T/C (endpoint: median survival time, dose: 32.0 mg/kg/injection, schedule: Q03HX016 (ip), vehicle: saline): 150 % of control
T/C (endpoint: median survival time, dose: 32.0 mg/kg/injection, schedule: Q03HX024 (ip), vehicle: saline): 153 % of control
T/C (endpoint: median survival time, dose: 32.0 mg/kg/injection, schedule: Q04DX003 (ip), vehicle: saline): 122 % of control
T/C (endpoint: median survival time, dose: 32.0 mg/kg/injection, schedule: Q08DX002 (ip), vehicle: saline): 111 % of control
T/C (endpoint: median survival time, dose: 50.0 mg/kg/injection, schedule: Q01DX001 (ip), vehicle: saline): 113 % of control
T/C (endpoint: median survival time, dose: 50.0 mg/kg/injection, schedule: Q03HX016 (ip), vehicle: saline): 158 % of control
T/C (endpoint: median survival time, dose: 50.0 mg/kg/injection, schedule: Q08DX002 (ip), vehicle: saline): 108 % of control
T/C (endpoint: median survival time, dose: 64.0 mg/kg/injection, schedule: Q01DX001 (ip), vehicle: saline): 100 % of control
T/C (endpoint: median survival time, dose: 64.0 mg/kg/injection, schedule: Q01DX001 (sc), vehicle: saline): 106 % of control
T/C (endpoint: median survival time, dose: 64.0 mg/kg/injection, schedule: Q01DX009 (oral), vehicle: saline): 115 % of control
T/C (endpoint: median survival time, dose: 64.0 mg/kg/injection, schedule: Q01DX009 (sc), vehicle: saline): 151 % of control
T/C (endpoint: median survival time, dose: 64.0 mg/kg/injection, schedule: Q03HX024 (ip), vehicle: saline): 153 % of control
T/C (endpoint: median survival time, dose: 64.0 mg/kg/injection, schedule: Q04DX003 (ip), vehicle: saline): 122 % of control
T/C (endpoint: median survival time, dose: 64.0 mg/kg/injection, schedule: Q08DX002 (ip), vehicle: saline): 113 % of control
T/C (endpoint: median survival time, dose: 100.0 mg/kg/injection, schedule: Q01DX001 (ip), vehicle: saline): 104 % of control
T/C (endpoint: median survival time, dose: 100.0 mg/kg/injection, schedule: Q01DX009 (ip), vehicle: saline): 169 % of control
T/C (endpoint: median survival time, dose: 100.0 mg/kg/injection, schedule: Q03HX016 (ip), vehicle: saline): 152 % of control
T/C (endpoint: median survival time, dose: 100.0 mg/kg/injection, schedule: Q03HX024 (ip), vehicle: saline): 202 % of control
T/C (endpoint: median survival time, dose: 100.0 mg/kg/injection, schedule: Q04DX003 (ip), vehicle: saline): 122 % of control
T/C (endpoint: median survival time, dose: 100.0 mg/kg/injection, schedule: Q08DX002 (ip), vehicle: saline): 114 % of control
T/C (endpoint: median survival time, dose: 128.0 mg/kg/injection, schedule: Q01DX001 (ip), vehicle: saline): 108 % of control
T/C (endpoint: median survival time, dose: 128.0 mg/kg/injection, schedule: Q01DX001 (sc), vehicle: saline): 104 % of control
T/C (endpoint: median survival time, dose: 128.0 mg/kg/injection, schedule: Q01DX009 (ip), vehicle: saline): 151 % of control
T/C (endpoint: median survival time, dose: 128.0 mg/kg/injection, schedule: Q01DX009 (sc), vehicle: saline): 163 % of control
T/C (endpoint: median survival time, dose: 128.0 mg/kg/injection, schedule: Q03HX024 (ip), vehicle: saline): 152 % of control
T/C (endpoint: median survival time, dose: 128.0 mg/kg/injection, schedule: Q04DX003 (ip), vehicle: saline): 108 % of control
T/C (endpoint: median survival time, dose: 128.0 mg/kg/injection, schedule: Q08DX002 (ip), vehicle: saline): 102 % of control
T/C (endpoint: median survival time, dose: 200.0 mg/kg/injection, schedule: Q01DX001 (ip), vehicle: saline): 108 % of control
T/C (endpoint: median survival time, dose: 200.0 mg/kg/injection, schedule: Q01DX009 (ip), vehicle: saline): 104 % of control
T/C (endpoint: median survival time, dose: 200.0 mg/kg/injection, schedule: Q08DX002 (ip), vehicle: saline): 104 % of control
T/C (endpoint: median survival time, dose: 256.0 mg/kg/injection, schedule: Q01DX001 (ip), vehicle: saline): 104 % of control
T/C (endpoint: median survival time, dose: 256.0 mg/kg/injection, schedule: Q01DX001 (oral), vehicle: saline): 108 % of control and 109 % of control
T/C (endpoint: median survival time, dose: 256.0 mg/kg/injection, schedule: Q01DX001 (sc), vehicle: saline): 104 % of control
T/C (endpoint: median survival time, dose: 256.0 mg/kg/injection, schedule: Q01DX009 (ip), vehicle: saline): 153 % of control
T/C (endpoint: median survival time, dose: 256.0 mg/kg/injection, schedule: Q01DX009 (oral), vehicle: saline): 115 % of control and 90 % of control
T/C (endpoint: median survival time, dose: 256.0 mg/kg/injection, schedule: Q08DX002 (ip), vehicle: saline): 99 % of control
T/C (endpoint: median survival time, dose: 400.0 mg/kg/injection, schedule: Q01DX001 (ip), vehicle: saline): 117 % of control
T/C (endpoint: median survival time, dose: 400.0 mg/kg/injection, schedule: Q08DX002 (ip), vehicle: saline): 122 % of control
T/C (endpoint: median survival time, dose: 512.0 mg/kg/injection, schedule: Q01DX001 (ip), vehicle: saline): 105 % of control
T/C (endpoint: median survival time, dose: 512.0 mg/kg/injection, schedule: Q01DX001 (oral), vehicle: saline): 115 % of control and 118 % of control
T/C (endpoint: median survival time, dose: 512.0 mg/kg/injection, schedule: Q01DX001 (sc), vehicle: saline): 107 % of control
T/C (endpoint: median survival time, dose: 512.0 mg/kg/injection, schedule: Q01DX009 (oral), vehicle: saline): 87 % of control
T/C (endpoint: median survival time, dose: 512.0 mg/kg/injection, schedule: Q08DX002 (ip), vehicle: saline): 102 % of control
T/C (endpoint: median survival time, dose: 1024.0 mg/kg/injection, schedule: Q01DX001 (ip), vehicle: saline): 114 % of control
T/C (endpoint: median survival time, dose: 1024.0 mg/kg/injection, schedule: Q01DX001 (oral), vehicle: saline): 114 % of control
T/C (endpoint: median survival time, dose: 1024.0 mg/kg/injection, schedule: Q01DX001 (sc), vehicle: saline): 109 % of control
T/C (endpoint: median survival time, dose: 1024.0 mg/kg/injection, schedule: Q08DX002 (ip), vehicle: saline): 118 % of control

Cc1ccc(C(C)C)c(OCCNC2=NCCN2)c1
T/C (endpoint: mean survival time, dose: 6.25 mg/kg/injection, schedule: Q01DX009 (ip), vehicle: saline): 97 % of control
T/C (endpoint: mean survival time, dose: 6.25 mg/kg/injection, schedule: Q04DX003 (ip), vehicle: saline): 97 % of control
T/C (endpoint: mean survival time, dose: 12.5 mg/kg/injection, schedule: Q01DX009 (ip), vehicle: saline): 104 % of control
T/C (endpoint: mean survival time, dose: 12.5 mg/kg/injection, schedule: Q04DX003 (ip), vehicle: saline): 92 % of control
T/C (endpoint: mean survival time, dose: 25.0 mg/kg/injection, schedule: Q01DX009 (ip), vehicle: saline): 97 % of control
T/C (endpoint: mean survival time, dose: 25.0 mg/kg/injection, schedule: Q04DX003 (ip), vehicle: saline): 97 % of control

Cc1cnc(Cl)[nH]1 (tested in a mixture with another compound)
T/C (endpoint: mean survival time, dose: 100.0 mg/kg/injection, schedule: Q04DX002 (ip), vehicle: saline with Tween-80): 100 % of control
T/C (endpoint: mean survival time, dose: 200.0 mg/kg/injection, schedule: Q04DX002 (ip), vehicle: saline with Tween-80): 113 % of control
T/C (endpoint: mean survival time, dose: 400.0 mg/kg/injection, schedule: Q04DX002 (ip), vehicle: saline with Tween-80): 113 % of control
